Molecules are shown by their SMILES. pIC50: −log10 of the molar value.

In this test the target is Plasminogen activator inhibitor 1 (Homo sapiens, UniProt P05121). In words: Inhibition of human PAI1 using tissue type plasminogen activator substrate by chromogenic absorbance at 405 nm.
Chain of Plasminogen activator inhibitor 1 (P05121 whole entry): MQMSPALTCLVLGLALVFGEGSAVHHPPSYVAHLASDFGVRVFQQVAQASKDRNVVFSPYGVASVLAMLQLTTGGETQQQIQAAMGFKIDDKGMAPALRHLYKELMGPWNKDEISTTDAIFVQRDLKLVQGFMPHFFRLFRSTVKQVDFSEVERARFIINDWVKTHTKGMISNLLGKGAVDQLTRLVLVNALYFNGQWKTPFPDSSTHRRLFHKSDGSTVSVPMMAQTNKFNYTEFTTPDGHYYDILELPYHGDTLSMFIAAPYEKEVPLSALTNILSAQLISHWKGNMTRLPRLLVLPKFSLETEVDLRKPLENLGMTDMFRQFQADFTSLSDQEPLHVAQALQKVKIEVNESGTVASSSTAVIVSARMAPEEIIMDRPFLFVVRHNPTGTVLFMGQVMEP
The term pIC50 denotes the IC50 on a negative log10 scale, so that one unit is a factor of ten. Low readings indicate a large IC50, high ones a small IC50. For the compound `CC(C)C[C@@H]1c2c(O)c(C=O)c(O)c(C=O)c2O[C@]2(C)C=C[C@@H](C(C)C)C[C@H]12` [EUGLOBAL IA2], the pIC50 was 3.86. Compound `CC(C)C[C@@H]1c2c(O)c(C=O)c(O)c(C=O)c2O[C@@H](c2c(O)c(C=O)c(O)c(C=O)c2O)[C@H]1C(C)C` [SIDEROXYLONAL B] gave a pIC50 of 5.28. The same measure for `CC(C)C[C@@H]1c2c(O)c(C=O)c(O)c(C=O)c2O[C@@H](c2c(O)c(C=O)c(O)c(C=O)c2O)[C@@H]1C(C)C` [SIDEROXYLONAL A]: 5.48. As for `CC(C)CC(=O)c1c(O)c(C=O)c2c(c1O)C[C@H]1C[C@H](C(C)C)C=C[C@@]1(C)O2` [EUGLOBAL IIC], the pIC50 is 3.15.

Compound `CC(C)C[C@@H]1C[C@@]2(CC[C@@H]3C[C@H]2C3(C)C)Oc2c(C=O)c(O)c(C=O)c(O)c21` [ROBUSTADIAL A] had a pIC50 of 3.82.

Take `CC(C)C[C@H]1c2c(O)c(C=O)c(O)c(C=O)c2O[C@@H](c2c(O)c(C=O)c(O)c(C=O)c2O)[C@@H]1C(C)C` [SIDEROXYLONAL C]: the pIC50 was 5.33.
